In brackets after ≈: the same amount, converted by molar mass. Like-named read-outs stand apart in the source and are kept apart here. One block for each compound: values may come before it.
Columns and labels:
[1] = system: Std:ddy mice; format: in vivo; details: intravenous administration 300 mg/kg, 24 hours after administration
Source text: Experiment 3: Acute Toxicity Test in Mice
Twenty-four hours after the administration, the animals were observed if dead or alive.
*: Number of survived animals/number of tested animals

[2] = Solubility in aqueous solvent; format: physicochemical; details: 25° C.
Protocol: Experiment 4: Solubility in Aqueous Solvent The solubility in an aqueous solvent of the present compound was measured, and the results as shown in Table 4 were obtained. The pH value in Table 4 is a pH value of a solution of the present compound in distilled water.

[3] = molecular target: T1, Human neutrophilic elastase (Homo sapiens, UniProt P08246); test: Human neutrophilic elastase inhibitory activity in vitro (fluorogenic substrate); format: biochemical; details: 37° C., pH 7.5
T1 construct: purchased Sigma
T1 sequence (P08246 30-267): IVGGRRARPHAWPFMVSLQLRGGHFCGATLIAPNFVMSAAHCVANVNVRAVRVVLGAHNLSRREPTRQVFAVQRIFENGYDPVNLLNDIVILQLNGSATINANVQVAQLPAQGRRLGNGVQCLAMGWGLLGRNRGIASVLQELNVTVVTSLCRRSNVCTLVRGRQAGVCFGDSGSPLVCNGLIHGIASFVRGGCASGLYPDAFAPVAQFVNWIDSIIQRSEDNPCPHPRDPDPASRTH
Protocol: Experiment 1: Human Neutrophilic Elastase Inhibitory Activity
In the present experiment, the inhibitory activity of the present invention against human neutrophilic elastase was studied in vitro.
The resulting solution (210 μl) was mixed with a 10^−8-10^−5 M solution of the present compound (40 μl), and the mixture was pre-incubated at 37° C. for 6 minutes. To this solution, 4 mM succinyl-alanyl-prolyl-alanine 4-methyl-coumaryl-7-amide (substrate solution, Peptide Institute Inc.) (50 μl) and distilled water (100 μl) were added, and the mixture was further reacted at 37° C. for 20 minutes. The concentration of the 7-amino-4-methylcoumarine thus obtained was measured fluorimetrically by monitoring at an excitation wave length of 380 nm and a fluorescent wave length of 460 nm.
The above “Bri j-35” means polyoxyethylene (23) lauryl ether, and the “HEPES” means N-(2-hydroxyethyl)piperazine-N′-(2-ethane-sulfonic acid).
In the following equation, A means the intensity of fluorescence when a present compound is added, and B means the intensity of fluorescence when a present compound is not added.
Inhibitory Rate (%)=(1−A/B)×100

[4] = system: pulmonary hemorrhage induced by human neutrophilic elastase; test: Inhibitory activity on pulmonary hemorrhage induced by human neutrophilic elastase in hamsters; details: hamster
Protocol: When human neutrophilic elastase is administered intratracheally to a hamster, the hemorrhage is induced in the lung. Hemoglobin is detected in the broncho-alveolar lavage fluid, which is obtained by washing the lung via bronchi at a fixed period after the elastase administration. In order to examine how much this hemorrhage can be inhibited by the present compound, this experiment was carried out by measuring the concentration of this hemoglobin.
Hamsters (male Syrian strain, 8-10 weeks old) were grouped into the following three groups (5 animals per group), and the following treatment was carried out on each group.
(A) Vehicle-Treated Control Group (Non-Treatment Group):
The result of the measurement was counted as A.
(B) Human Neutrophilic Elastase-Treated Group (Without the Present Compound):
Human neutrophilc elastase (25 units, manufactured by Elastin Products, Inc.) was dissolved in physiological saline solution (0.2 ml), and the solution thus obtained was administered to the hamsters at the bronchial tube to induce the pulmonary hemorrhage. One hour after the administration of elastase, the concentration of hemoglobin in the broncho-alveolar lavage fluid was measured in the same manner as in Group (A). The result of the measurement was counted as B.
(C) Human Neutrophilic Elastase-Treated Group (with the Present Compound):
A fixed amount of the present compound was administered to the hamsters in the form of a phosphate-buffered saline solution (pH 7.4) in the manner as described below. Then, human neutrophilic elastase was administered to the hamsters in the same manner as the above. One hour after the administration of elastase, the concentration of hemoglobin in the washing of the broncho-alveolar lavage was measured in the same manner as in Group (A). The result of the measurement was counted as C.
Administration Method of the Present Compound:
The administration of the present compound to the hamsters was carried out by two kinds of methods. One of them is a method of intravenous bolus-administration of the solution containing the present compound 5 minutes prior to the elastase administration. Another method is a method of intravenous infusion of the solution containing the present compound for a period of 70 minutes beginning at 10 minutes prior to the elastase administration.

[5] = distilled water, pH of the solution given beside each value, read-out: Solubility, Water
[6] = aqueous buffer, 0.1 M phosphate buffer pH 7.4, read-out: Solubility, 0.1 M Phosphate buffer (pH 7.4)
[7] = intravenous bolus administration 3 mg/kg, 5 minutes prior to elastase
[8] = intravenous bolus administration 10 mg/kg, 5 minutes prior to elastase
[9] = intravenous infusion 1 mg/kg/hr for 70 minutes
[10] = intravenous infusion 3 mg/kg/hr for 70 minutes
[11] = intravenous infusion 10 mg/kg/hr for 70 minutes

Compound: CC(C)[C@H](NC(=O)CN1CCN(CC(=O)O)C1=O)C(=O)N1CCC[C@H]1C(=O)N[C@H](C(=O)C(F)(F)F)C(C)C [I-b-1, 2-(3-carboxymethyl-2-oxo-1-imidazolidinyl)acetyl-L-valyl-N-[(1S)-3,3,3-trifluoro-1-isopropyl-2-oxopropyl]-L-prolinamide]
- Livability (number of survived animals/number of tested animals) [1]: 6/6
- solubility [2, 5]: > 1000 mg/mL
- solubility [2, 6]: > 1000 mg/mL

Compound: CC(C)[C@H](NC(=O)[C@@H]1CCCN1C(=O)[C@@H](NC(=O)Cn1ccc(=O)n(CC(=O)O)c1=O)C(C)C)C(=O)C(=O)NCc1ccccc1 [I-b-3, 2-(3-carboxymethyl-2,4-dioxo-1-pyrimidinyl)acetyl-L-valyl-N-[(1S)-3-benzylamino-1-isopropyl-2,3-dioxopropyl]-L-prolinamide]
- Livability (number of survived animals/number of tested animals) [1]: 6/6
- solubility [2, 5]: 8.7 mg/mL (≈ 13.6 mM)
- solubility [2, 6]: > 100 mg/mL

Compound: CC(C)[C@H](NC(=O)[C@@H]1CCCN1C(=O)[C@@H](NC(=O)Cn1ccc(=O)n(CC(=O)O)c1=O)C(C)C)C(=O)c1nc2ccccc2o1 [I-b-2, 2-(3-carboxymethyl-2,4-dioxo-1-pyrimidinyl)acetyl-L-valyl-N-[(1S)-2-(2-benzoxazolyl)-1-isopropyl-2-oxoethyl]-L-prolinamide]
- Livability (number of survived animals/number of tested animals) [1]: 6/6
- solubility [2, 5]: 5 mg/mL (≈ 8 mM)
- solubility [2, 6]: > 100 mg/mL

More lines, main results first:

- IC50 [3]: 0.045 µM
Compound: CC(C)[C@H](NC(=O)[C@@H]1CCCN1C(=O)[C@@H](NC(=O)CC(=O)N1CCN(CC(=O)O)C(=O)C1)C(C)C)C(=O)c1nc2ccccc2o1 [I-b-10]
- Hemorrhage inhibitory rate [4, 7]: 32%
- Hemorrhage inhibitory rate [4, 8]: 76%
- Hemorrhage inhibitory rate [4, 9]: 52%
- Hemorrhage inhibitory rate [4, 10]: 69%
- Hemorrhage inhibitory rate [4, 11]: 92%

- solubility [2, 5]: 0.012 mg/mL (≈ 0.0276 mM)
- solubility [2, 6]: ~20 mg/mL (≈ 46 mM)
Compound: CC(C)(C)C(=O)Oc1ccc(S(=O)(=O)Nc2ccccc2C(=O)NCC(=O)O)cc1 [Control (a), reference compound]
- Hemorrhage inhibitory rate ([4]; intravenous bolus administration 100 mg/kg (control dose row)): 74%
- Hemorrhage inhibitory rate ([4]; intravenous infusion 10 mg/kg/hr (control dose row)): 18%
- Hemorrhage inhibitory rate ([4]; intravenous infusion 100 mg/kg/hr (control dose row)): 60%

- IC50 [3]: 0.082 µM
Compound: CC(C)[C@H](NC(=O)CN1C(=O)CN(CC(=O)O)C1=O)C(=O)N1CCC[C@H]1C(=O)N[C@H](C(=O)C(F)(F)F)C(C)C [I-b-7, 2-(3-carboxymethyl-2,5-dioxo-1-imidazolidinyl)acetyl-L-valyl-N-[(1S)-3,3,3-trifluoro-1-isopropyl-2-oxopropyl]-L-prolinamide]
- Hemorrhage inhibitory rate [4, 7]: 50%
- Hemorrhage inhibitory rate [4, 8]: 64%
- Hemorrhage inhibitory rate [4, 9]: 51%
- Hemorrhage inhibitory rate [4, 10]: 53%
- Hemorrhage inhibitory rate [4, 11]: 72%

Reference: US6835714B1, “Heterocyclic compounds, intermediates thereof and elastase inhibitors” (Dainippon Pharmaceutical Co., Ltd., priority 1999, dated 2004)
